Key:
[1] = molecular target: T1, Caspase-9 (Homo sapiens, UniProt P55211); assay: Compound was evaluated for its inhibitory activity against the Caspase-9 enzyme
T1 sequence (P55211 whole entry): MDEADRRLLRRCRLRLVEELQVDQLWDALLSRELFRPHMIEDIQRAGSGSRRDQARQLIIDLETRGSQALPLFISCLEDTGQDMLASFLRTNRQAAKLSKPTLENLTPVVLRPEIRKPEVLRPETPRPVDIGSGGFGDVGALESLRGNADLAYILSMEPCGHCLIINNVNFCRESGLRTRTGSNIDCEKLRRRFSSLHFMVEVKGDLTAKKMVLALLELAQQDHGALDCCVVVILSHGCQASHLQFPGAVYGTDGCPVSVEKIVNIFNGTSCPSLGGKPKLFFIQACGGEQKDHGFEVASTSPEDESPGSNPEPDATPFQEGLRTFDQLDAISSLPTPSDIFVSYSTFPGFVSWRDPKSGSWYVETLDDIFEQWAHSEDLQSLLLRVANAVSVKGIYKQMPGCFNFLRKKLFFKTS

[2] = molecular target: T2, Caspase-3 (Homo sapiens, UniProt P42574); assay: Inhibitory activity against human recombinant Caspase-3 enzyme
T2 sequence (P42574 whole entry): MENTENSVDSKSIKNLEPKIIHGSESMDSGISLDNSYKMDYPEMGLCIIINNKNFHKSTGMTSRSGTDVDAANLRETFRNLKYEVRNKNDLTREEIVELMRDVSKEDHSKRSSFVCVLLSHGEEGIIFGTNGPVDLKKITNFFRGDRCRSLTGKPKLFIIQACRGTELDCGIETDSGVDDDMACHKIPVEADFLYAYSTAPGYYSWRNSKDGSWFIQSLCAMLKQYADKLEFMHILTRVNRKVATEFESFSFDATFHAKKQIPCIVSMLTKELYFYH

[3] = molecular target: Cathepsin B (Homo sapiens, UniProt P07858); assay: Compound was evaluated for its inhibitory activity against Cathepsin B
[4] = molecular target: T3, Caspase-6 (Homo sapiens, UniProt P55212); assay: Compound was evaluated for its inhibitory activity against the Caspase-6 enzyme
T3 sequence (P55212 whole entry): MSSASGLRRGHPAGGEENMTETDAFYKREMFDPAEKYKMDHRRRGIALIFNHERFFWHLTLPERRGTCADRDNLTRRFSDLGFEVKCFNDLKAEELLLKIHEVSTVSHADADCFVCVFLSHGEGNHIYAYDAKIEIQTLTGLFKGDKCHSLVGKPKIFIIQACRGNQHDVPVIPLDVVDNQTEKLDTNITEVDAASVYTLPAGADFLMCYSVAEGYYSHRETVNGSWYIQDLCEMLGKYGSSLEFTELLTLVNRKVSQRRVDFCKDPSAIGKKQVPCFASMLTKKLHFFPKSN

[5] = molecular target: Caspase-8 (Homo sapiens, UniProt Q14790); assay: Compound was evaluated for its inhibitory activity against the Caspase-8 enzyme
Chain of Caspase-8 (Q14790 217-374 limits assumed): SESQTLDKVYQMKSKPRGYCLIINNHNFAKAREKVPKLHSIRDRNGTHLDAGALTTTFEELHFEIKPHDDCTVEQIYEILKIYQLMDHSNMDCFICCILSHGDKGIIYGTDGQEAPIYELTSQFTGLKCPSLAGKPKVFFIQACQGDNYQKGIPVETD
Chain of Caspase-8 (Q14790 385-479 limits assumed): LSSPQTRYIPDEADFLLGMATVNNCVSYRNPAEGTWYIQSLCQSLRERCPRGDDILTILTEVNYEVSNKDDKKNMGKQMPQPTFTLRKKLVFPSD

[6] = molecular target: Coagulation factor X (Homo sapiens, UniProt P00742); assay: Compound was evaluated for its inhibitory activity against the Coagulation factor X
Chain of Coagulation factor X (P00742 41-179 limits assumed): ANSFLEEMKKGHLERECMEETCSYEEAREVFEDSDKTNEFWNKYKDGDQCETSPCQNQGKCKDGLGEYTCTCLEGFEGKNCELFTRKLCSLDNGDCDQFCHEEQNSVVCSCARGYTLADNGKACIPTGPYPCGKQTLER
Chain of Coagulation factor X (P00742 235-488 limits assumed): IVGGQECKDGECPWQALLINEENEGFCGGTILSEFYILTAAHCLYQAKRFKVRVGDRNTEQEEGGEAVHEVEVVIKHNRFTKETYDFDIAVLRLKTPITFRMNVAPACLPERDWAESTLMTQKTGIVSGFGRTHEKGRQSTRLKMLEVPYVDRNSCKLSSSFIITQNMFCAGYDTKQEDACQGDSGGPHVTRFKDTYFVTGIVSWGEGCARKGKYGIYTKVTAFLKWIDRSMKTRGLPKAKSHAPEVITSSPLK

[7] = molecular target: Prothrombin (Homo sapiens, UniProt P00734); assay: Compound was evaluated for its inhibitory activity against the Thrombin
[8] = molecular target: T4, Caspase-1 (Homo sapiens, UniProt P29466); assay: Compound was evaluated for its inhibitory activity against the Caspase-1 enzyme
T4 sequence (P29466 whole entry): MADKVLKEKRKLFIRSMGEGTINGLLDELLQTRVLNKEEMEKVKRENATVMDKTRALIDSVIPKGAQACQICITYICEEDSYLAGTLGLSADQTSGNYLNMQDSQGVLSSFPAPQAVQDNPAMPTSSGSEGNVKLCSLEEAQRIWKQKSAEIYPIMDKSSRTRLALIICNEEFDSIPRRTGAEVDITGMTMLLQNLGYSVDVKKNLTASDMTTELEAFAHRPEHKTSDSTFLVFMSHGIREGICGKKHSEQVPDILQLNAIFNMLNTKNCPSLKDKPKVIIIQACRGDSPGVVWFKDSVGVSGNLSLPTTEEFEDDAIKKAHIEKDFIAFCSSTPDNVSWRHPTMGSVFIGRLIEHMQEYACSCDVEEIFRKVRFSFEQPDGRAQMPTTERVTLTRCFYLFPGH

[9] = molecular target: T5, Caspase-7 (Homo sapiens, UniProt P55210); assay: Compound was evaluated for its inhibitory activity against the Caspase-7 enzyme
T5 sequence (P55210 whole entry): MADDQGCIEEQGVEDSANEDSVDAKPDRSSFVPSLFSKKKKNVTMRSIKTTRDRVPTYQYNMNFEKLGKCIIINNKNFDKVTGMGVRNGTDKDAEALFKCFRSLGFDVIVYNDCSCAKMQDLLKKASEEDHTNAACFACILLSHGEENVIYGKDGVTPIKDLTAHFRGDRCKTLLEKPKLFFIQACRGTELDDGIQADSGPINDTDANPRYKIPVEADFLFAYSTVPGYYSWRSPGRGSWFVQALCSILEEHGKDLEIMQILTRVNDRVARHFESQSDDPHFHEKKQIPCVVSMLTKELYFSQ

[10] = molecular target: T6, Calpain-1 catalytic subunit (Homo sapiens, UniProt P07384); assay: Compound was evaluated for its inhibitory activity against the Calpain 1 enzyme
T6 sequence (P07384 whole entry): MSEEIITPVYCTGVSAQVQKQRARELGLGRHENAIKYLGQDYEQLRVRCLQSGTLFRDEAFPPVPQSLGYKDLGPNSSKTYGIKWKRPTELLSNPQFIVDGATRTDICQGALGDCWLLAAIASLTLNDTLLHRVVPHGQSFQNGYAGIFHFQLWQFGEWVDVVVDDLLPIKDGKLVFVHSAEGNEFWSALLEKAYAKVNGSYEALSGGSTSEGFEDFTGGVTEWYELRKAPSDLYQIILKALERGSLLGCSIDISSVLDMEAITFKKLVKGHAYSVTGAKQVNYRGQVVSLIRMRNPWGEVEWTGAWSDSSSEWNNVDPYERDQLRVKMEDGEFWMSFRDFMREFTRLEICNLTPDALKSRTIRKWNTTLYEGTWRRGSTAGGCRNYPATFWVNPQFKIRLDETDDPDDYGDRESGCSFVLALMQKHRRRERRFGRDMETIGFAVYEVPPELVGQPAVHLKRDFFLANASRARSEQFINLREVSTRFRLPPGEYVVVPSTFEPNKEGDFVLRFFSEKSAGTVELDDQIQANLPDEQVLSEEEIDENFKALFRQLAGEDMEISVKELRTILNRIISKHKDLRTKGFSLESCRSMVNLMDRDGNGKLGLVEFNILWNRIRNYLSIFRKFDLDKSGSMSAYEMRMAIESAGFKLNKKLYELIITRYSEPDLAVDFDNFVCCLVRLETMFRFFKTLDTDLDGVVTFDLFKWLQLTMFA

[11] = molecular target: T6, Calpain-1 catalytic subunit; assay: Compound was evaluated for its inhibitory activity against the Calpain-1 enzyme

Row | SMILES | IC50 [1] | IC50 [2] | IC50 [3] | IC50 [4] | IC50 [5] | IC50 [6] | IC50 [7] | IC50 [8] | IC50 [9] | IC50 [10] | IC50 [11]
1 | CC(C)[C@H](NC(=O)OCc1ccccc1)C(=O)NC(CC(=O)O)C(=O)CF (stereo partly specified) | 5 nM | 30 nM | > 10000 nM | 18 nM | 7 nM | > 100000 nM | > 100000 nM | 20 nM | 7 nM | > 10000 nM | –
2 | COC(=O)CC(NC(=O)[C@@H](NC(=O)OCc1ccccc1)C(C)C)C(=O)CF (stereo partly specified) | – | 1100 nM | 300 nM | – | – | > 100000 nM | > 100000 nM | 900 nM | – | – | 120 nM

Reference: ChEMBL document CHEMBL1147604, “Dipeptidyl aspartyl fluoromethylketones as potent caspase-3 inhibitors: SAR of the P2 amino acid” (Bioorg Med Chem Lett, 2004)
